From ChEMBL document CHEMBL5244230, “Artemisinin-derived hybrids and their anticancer activity” (Eur J Med Chem, 2020)
“And” between values parts separate entries of the source, which are not always exact repeats. Identical values can stand only once.

How the values were obtained:
Plasmodium falciparum [1] = experiment: Antiplasmodial activity against Plasmodium falciparum HB3; assay type: functional, organism-based
Melanoma cell line = experiment: Antiproliferative activity against human Melanoma cell; assay type: functional
Colon cell line = experiment: Antiproliferative activity against human Colon cell line; assay type: functional
Plasmodium falciparum [2] = experiment: Antiplasmodial activity against Plasmodium falciparum K1; assay type: functional, organism-based
Prostatic carcinoma cell = experiment: Antiproliferative activity against human Prostatic carcinoma cell; assay type: functional
Leukemia cell [3] = experiment: Antiproliferative activity against human Leukemia cell; assay type: functional
NCI-H460 = experiment: Antiproliferative activity against human NCI-H460 cells; assay type: functional, cell-based
A-431 = experiment: Antiproliferative activity against human A-431 cells; assay type: functional, cell-based
P388/ADR = experiment: Antiproliferative activity against mouse P388/ADR cells assessed as reduction in cell viability measured after 72 hrs; assay type: functional, cell-based; details: 72 h
PC-3 [4] = experiment: Antiproliferative activity against human PC-3 cells; assay type: functional, cell-based
HL-60 [5] = experiment: Anticancer activity against human HL-60 cells; assay type: functional, cell-based
MCF7 [6] = experiment: Anticancer activity against human MCF7 cells assessed as inhibition of cell growth; assay type: functional, cell-based
MCF7 [7] = experiment: Anticancer activity against human MCF7 cells; assay type: functional, cell-based
K562 = experiment: Antiproliferative activity against human K562 cells; assay type: functional, cell-based
[8] = Antiproliferative activity against mouse P388 cells assessed as reduction in cell viability measured after 72 hrs; assay type: functional, cell-based; details: 72 h
HL-60 [9] = experiment: Antiproliferative activity against human HL-60 cells assessed as reduction in cell viability measured after 72 hrs; assay type: functional, cell-based; details: HL-60, 72 h
HEK293 = experiment: Antiproliferative activity against human HEK293 cells; assay type: functional, cell-based
[10] = Antiproliferative activity against human U-87 MG cells; assay type: functional, cell-based, U-87MG ATCC
COLO 205 = experiment: Antiproliferative activity against human COLO 205 cells; assay type: functional, cell-based
[11] = Anticancer activity against human Lu1 cells; assay type: functional, cell-based
A549 [12] = experiment: Antiproliferative activity against human A549 cells; assay type: functional, cell-based
SMMC-7721 = experiment: Antiproliferative activity against human SMMC-7721 cells; assay type: functional, cell-based
MDA-MB-231 = experiment: Antiproliferative activity against human MDA-MB-231 cells; assay type: functional, cell-based; details: mda-mb-231
P388 = experiment: Anticancer activity against mouse P388 cells; assay type: functional, cell-based
HT-29 [13] = experiment: Antiproliferative activity against human HT-29 cells assessed as reduction in cell viability; assay type: functional, cell-based
HeLa [14] = experiment: Cytotoxicity against human HeLa cells assessed as cell viability incubated for 48 hrs by MTT assay; assay type: functional, cell-based
Leukemia cell [15] = experiment: Antiproliferative activity against human Leukemia cell assessed as reduction in cell viability; assay type: functional, cell-based
HeLa [16] = experiment: Antiproliferative activity against human HeLa cells assessed as reduction in cell viability; assay type: functional, cell-based
[17] = Antiproliferative activity against human 1205Lu cells; assay type: functional, cell-based
[18] = Cytotoxicity against human HCEC cells; assay type: toxicity, cell-based
HCT-116 [19] = experiment: Antiproliferative activity against human HCT-116 cells assessed as reduction in cell viability; assay type: functional, cell-based; details: Homo sapiens, HCT-116
A549 [20] = experiment: Antiproliferative activity against human A549 cells assessed as reduction in cell viability measured for 24 hrs; assay type: functional, cell-based; details: A549, 24 h
PC-3 [21] = experiment: Antiproliferative activity against human PC-3 cells assessed as reduction in cell viability measured for 24 hrs; assay type: functional, cell-based; details: PC-3, 24 h
HCT-15 = experiment: Antiproliferative activity against human HCT-15 cells assessed as cell growth inhibition by MTT assay; assay type: functional, cell-based
A549 [22] = experiment: Antiproliferative activity against human A549 cells assessed as cell growth inhibition by MTT assay; assay type: functional, cell-based
HepG2 [23] = experiment: Antiproliferative activity against human HepG2 cells assessed as cell growth inhibition by MTT assay; assay type: functional, cell-based
SGC-7901 = experiment: Antiproliferative activity against human SGC-7901 cells assessed as reduction in cell viability measured for 24 hrs; assay type: functional, cell-based; details: SGC-7901, 24 h
Hep 3B2 = experiment: Antiproliferative activity against human Hep3B cells assessed as reduction in cell viability; assay type: functional, cell-based
HepG2 [24] = experiment: Antiproliferative activity against human HepG2 cells assessed as reduction in cell viability; assay type: functional, cell-based; details: Homo sapiens, HepG2
OVCAR-3 = experiment: Antiproliferative activity against human OVCAR-3 cells assessed as reduction in cell viability; assay type: functional, cell-based
A2780 = experiment: Antiproliferative activity against human A2780 cells assessed as reduction in cell viability; assay type: functional, cell-based
HT-29 [25] = experiment: Antiproliferative activity against human HT-29 cells; assay type: functional, cell-based
EL4 = experiment: Antiproliferative activity against mouse EL4 cells; assay type: functional, cell-based
HCT-116 [26] = experiment: Antiproliferative activity against human HCT-116 cells; assay type: functional, cell-based
HeLa [27] = experiment: Antiproliferative activity against human HeLa cells; assay type: functional, cell-based

COP(=O)(OCC[C@H]1[C@@H](C)O[C@@H]2O[C@@]3(C)CC[C@H]4[C@H](C)CC[C@@H]1[C@@]24OO3)OCC[C@H]1O[C@@H]2O[C@@]3(C)CC[C@H]4[C@H](C)CC[C@@H]([C@H]1C)[C@@]24OO3 (stereo not given in full)
IC50 (Plasmodium falciparum [1]): 0.09 nM
GI50 (Melanoma cell line): < 0.01 µM
GI50 (Colon cell line): < 0.01 µM
IC50 (Plasmodium falciparum [2]): 0.09 nM
GI50 (Prostatic carcinoma cell): < 0.01 µM
GI50 (Leukemia cell [3]): < 0.01 µM

C[C@H]1[C@@H](O)O[C@@H]2O[C@@]3(C)CC[C@H]4[C@H](C)CC[C@@H]1[C@@]24OO3 [ARTENIMOL]
IC50 (NCI-H460): 5.29 µM
IC50 (A-431): 15.7 µM
IC50 (P388/ADR): 20.7 µM
IC50 (PC-3 [4]): 15.7 µM
IC50 (HL-60 [5]): 39.9 µM
IC50 (MCF7 [6]): 39.9 µM
IC50 (MCF7 [7]): 39.9 µM
IC50 (K562): 15.7 µM
IC50 [8]: 1.5 µM
IC50 (HL-60 [9]): 0.299 µM
IC50 (HEK293): 15.7 µM
IC50 [10]: 5.29 µM
IC50 (COLO 205): 15.7 µM
IC50 [11]: 39.9 µM
IC50 (A549 [12]): 5.29 µM
IC50 (SMMC-7721): 0.4 µM
IC50 (MDA-MB-231): 15.7 µM and 5.29 µM
IC50 (P388): 39.9 µM
IC50 (HT-29 [13]): 5.29 µM

C[C@H]1[C@H](OC(=O)CCC(=O)O)O[C@@H]2O[C@@]3(C)CC[C@H]4[C@H](C)CC[C@@H]1[C@@]24OO3 [ARTESUNATE]
IC50 (HeLa [14]): 0.5 µM
IC50 (Leukemia cell [15]): 6.89 µM
IC50 (HeLa [16]): 11.3 µM
IC50 [17]: 7.1 µM

C[C@H]1[C@H](Sc2ccccc2)O[C@@H]2O[C@@]3(C)CC[C@H]4[C@H](C)CC[C@@H]1[C@@]24OO3
IC50 [18]: 0.93 µM

C[C@H]1[C@@H](CCCOP(=O)(O)Oc2ccccc2)O[C@@H]2O[C@@]3(C)CC[C@H]4[C@H](C)CC[C@@H]1[C@@]24OO3
IC50 (HCT-116 [19]): 3.82 µM
IC50 (HeLa [16]): 3.82 µM

O=c1[nH]cc(F)c(=O)[nH]1 [FLUOROURACIL]
IC50 (A549 [20]): 6.8 µM
IC50 (PC-3 [21]): 6.8 µM
IC50 (MCF7 [7]): > 40 µM
IC50 (HCT-15): 33.7 µM
IC50 [18]: > 100 µM
IC50 (A549 [22]): 33.7 µM
IC50 (HepG2 [23]): 33.7 µM
IC50 (SGC-7901): 6.8 µM

CCN(CC)c1ccc2cc(C(=O)N3CCN(CCC[C@H]4O[C@@H]5O[C@@]6(C)CC[C@H]7[C@H](C)CC[C@@H]([C@H]4C)[C@@]57OO6)CC3)c(=O)oc2c1
IC50 (Hep 3B2): 2.33 µM
IC50 (HepG2 [24]): 2.33 µM
IC50 (OVCAR-3): 2.33 µM
IC50 (A2780): 2.33 µM

C[C@H]1[C@@H](CCCOP(=O)(Oc2ccccc2)Oc2ccccc2)O[C@@H]2O[C@@]3(C)CC[C@H]4[C@H](C)CC[C@@H]1[C@@]24OO3
IC50 (HCT-116 [19]): 3.82 µM
IC50 (HeLa [16]): 3.82 µM

C[C@H]1[C@H](CCS(=O)(=O)CCCS(=O)(=O)CC[C@H]2O[C@@H]3O[C@@]4(C)CC[C@H]5[C@H](C)CC[C@@H]([C@H]2C)[C@@]35OO4)O[C@@H]2O[C@@]3(C)CC[C@H]4[C@H](C)CC[C@@H]1[C@@]24OO3
IC50 (MCF7 [7]): 0.38 µM
IC50 (HT-29 [25]): 0.38 µM
IC50 (EL4): 0.38 µM

C[C@H]1[C@@H](CCC(=O)Nc2ccc(F)cc2)O[C@@H]2O[C@]3(C)CC[C@H]4[C@H](C)CC[C@@H]1[C@@]24OO3
IC50 (HCT-116 [26]): 40 µM
IC50 (HeLa [27]): 40 µM
IC50 [17]: 40 µM

C[C@H]1[C@@H](CCOP(=O)(OCC[C@H]2[C@@H](C)O[C@@H]3O[C@@]4(C)CC[C@H]5[C@H](C)CC[C@@H]2[C@@]35OO4)Oc2ccccc2)O[C@@H]2O[C@@]3(C)CC[C@H]4[C@H](C)CC[C@@H]1[C@@]24OO3 (stereo not given in full)
IC50 (Plasmodium falciparum [1]): 0.09 nM
GI50 (Melanoma cell line): < 0.01 µM
GI50 (Colon cell line): < 0.01 µM
IC50 (Plasmodium falciparum [2]): 0.09 nM
GI50 (Prostatic carcinoma cell): < 0.01 µM
GI50 (Leukemia cell [3]): 0.01 µM

C[C@H]1[C@@H](CCSCC[C@H]2O[C@@H]3O[C@@]4(C)CC[C@H]5[C@H](C)CC[C@@H]([C@H]2C)[C@@]35OO4)O[C@@H]2O[C@@]3(C)CC[C@H]4[C@H](C)CC[C@@H]1[C@@]24OO3
IC50 (MCF7 [7]): 0.017 µM
IC50 (HT-29 [25]): 0.017 µM
IC50 (EL4): 0.017 µM

C[C@@H]1CC[C@@H]2[C@]34OO[C@](C)(CC[C@@H]13)O[C@H]4OC(=O)[C@@]21CC(c2ccccc2)=NO1
IC50 (HCT-15): 4.04 µM
IC50 (A549 [22]): 4.04 µM
IC50 (HepG2 [23]): 4.04 µM

C[C@H]1[C@@H](Sc2ccccc2)O[C@@H]2O[C@@]3(C)CC[C@H]4[C@H](C)CC[C@@H]1[C@@]24OO3
IC50 [18]: 5.24 µM
